{"source": "patent US12241084B2", "about": "“Methods for efficient generation of GABAergic interneurons from pluripotent stem cells” (The McLean Hospital Corporation, priority 2013, dated 2025)", "key": {"H9 cells [1]": {"system": "H9 cells", "experiment": "MGE derivation from differentiating hPSCs (Nkx2.1 immunocytochemistry, cell counting, FACS)", "assay_type": "cell-based, human", "settings": "for MGE specification: treatment starting at day 0, flow cytometry; for Nkx2.2+/total cells: n=4", "procedure": "Human PSC cells (H9 ESCs (WA09, WiCell, Madison, WI, passage 45-55), H7 ESC (WA07, WiCell, passage 41-51) and iPSC2497 (a kind gift from Dr. Fred Gage, [14], passage 30-40) were maintained on Matrigel (BD, San Hose, CA) in mTeSR media (Invitrogen, Calsbad, CA) with 10 ng/ml bFGF (Peprotech, Rocky Hill, NJ), and passaged using Dispase (Stem Cell Technologies, Vancouver, BC, Canada). For differentiation, PSCs were trypsinized and grown as floating aggregates in low adherent flasks in KSR media (20% knockout serum replacement, DMEM, 2 mM L-glutamine and 10 μM β-mercaptoethanol (all from Invitrogen)). Rock inhibitor (Y-27632, 10 μM, Tocris, Bristol, United Kingdom) was added on the first day of differentiation. After two weeks of floating culture, cells were transferred to polyornithine (PLO; […]; Sigma, St. Louis, MO) and fibronectin (FN; […]; Sigma, St. Louis, MO) coated surfaces. For neural induction, cells were treated with LDN193189 (100 nM, Stemgent, Cambridge, MA) from d0 to d14 and with SB431542 (10 μM, Tocris) from d0 to d7 [25]. For MGE induction, cells were treated with IWP2 (5 μM, EMD Millipore) from d0 to d7, with SAG (0.1 µM, EMD Millipore) from d0 to d21, and with FGF8 (100 ng/ml, Peprotech) from d8 to d21. After 3 weeks of differentiation, cells were trypsinized and droplets of 10,000 cells/μl transferred to PLO/FN-coated coverslips in differentiation media (N3 media with 10 ng/ml GDNF (Peprotech), 10 ng/ml BDNF (Peprotech) and 2.5 μM DAPT (Tocris)) for further differentiation and maturation.\nDifferentiated cells were trypsinized and fixed in Fix/Perm solution (BD) for 30 min., and incubated with blocking buffer (PBS with 0.1 mg/ml BSA and 0.1% Saponin (both from Sigma, St. Louis, MO)) for 10 minutes. Blocked cells were incubated with primary antibody (anti-Nkx2.1; Epitomics) in blocking buffer for 30 minutes. After washing with PBS, Alexa 647-conjugated secondary antibodies (Invitrogen) were added (1:1000) and incubated for another 15 minutes. Some samples were incubated only with secondary antibody as control. After washing with PBS, cells were suspended in blocking buffer and analyzed using a FACSAria (BD Biosciences, San Jose, CA). Flowjo (Tree Star, Ashland, Or) software was used to analyze raw data. Ten thousand cells were used per analysis.\nFor immunofluorescence staining, fixed cells or tissue sections were incubated with blocking buffer (PBS, 10% normal donkey serum (NDS)) containing 0.1% Triton for 10 minutes. Cells were then incubated overnight at 4° C. with primary antibodies diluted in PBS containing 2% NDS. The primary antibody list can be found in table 1. After rinsing with PBS, samples were incubated with fluorescent dye-labeled secondary antibodies (Alexa 488- Alexa 594- or Alexa 647-labeled IgG; Invitrogen, Carlsbad, CA) in PBS containing 2% NDS for 30 minutes at room temperature. After rinsing with PBS, Hoechst 33342 ([…]) was used for counterstaining, and coverslips/tissues sections were mounted onto slides in Mowiol 4-88 (Calbiochem, Gibbstown, NJ). Confocal analysis was performed using an Olympus DSU Spinning Disc Confocal on an IX81 inverted microscope (Center Valley, PA).\nCells were counted using the StereoInvestigator image capture equipment and software (Microbright Field, Williston, VT). For counting of cells on cover slips, an optical fractionator probe was used with a 500 μm×500 µm grid size and 100 μm×[…] counting frame (>40 counting sites with >1000 total cells counted per sample) at 40× magnification. Coverslips from 3-4 independent differentiations were used for analysis. For statistical analysis, we performed t-test (alpha=0.05) comparing control vs. sample using Prism6 software (Graph Pad)."}, "[2]": {"system": "AMPA/kainate-type glutamate receptors", "experiment": "NBQX inhibition of sEPSC in grafted cells", "design": "species or system human", "settings": "10 μM NBQX"}, "differentiating ES cells": {"system": "differentiating ES cells", "experiment": "Real time PCR analysis of differentiating ES cells", "assay_type": "cell-based, human", "procedure": "Total RNA was prepared using Trizol (Invitrogen) and Purelink RNA mini kit (Invitrogen). cDNA from total RNA was generated using the SuperScript™ II RT (Invitrogen, Carlsbad, CA) and oligo (dT) primers. For quantitative analysis of the expression level of mRNAs, real-time PCR analyses were performed using the DNA engine Opticon™ (MJ Research, Waltham, MA) and SYBR green I (Molecular Probes, OR). Primers were designed using the MacVector software (Oxford Molecular Ltd.: primers sequences are available upon request). PCR were performed in 25 μl containing […] of each primer, 0.5×SYBR Green I (Molecular Probes), and 1 μl of cDNA. Fifty cycles consisting of 95° C. for 30 sec., 55° C. for 30 sec., 72° C. for 30 sec., and 79° C. for 5 sec. were performed. Primer dimers were melted at 79° C. before measuring the fluorescent signals after each cycle. The mRNA expression level for each gene was normalized against that of the GAPDH gene. The relative values were calculated by setting the normalized value of control as 1."}, "H9 cells [3]": {"system": "H9 cells", "experiment": "MGE derivation from differentiating hPSCs (Nkx2.1 immunocytochemistry, cell counting, FACS)", "assay_type": "cell-based, human"}, "[4]": {"system": "voltage-gated Na+ channels", "assay_type": "cell-based, human"}, "[5]": {"settings": "SHH activation during early differentiation"}}, "note": "“Also recorded” adds a separate entry of the source.", "data": [{"molecule": "Cc1ccc2nc(NC(=O)CSc3nc4c(c(=O)n3-c3ccccc3)SCC4)sc2c1", "note": "[IWP2]", "values": [{"measurement": "MGE specification", "setting": "H9 cells [1]", "value": 5.16, "unit": "%"}]}, {"molecule": "NS(=O)(=O)c1cccc2c1c([N+](=O)[O-])cc1nc(O)c(O)nc12", "note": "[NBQX]", "values": [{"measurement": "inhibition of spontaneous excitatory postsynaptic currents", "setting": "[2]", "value": "inhibited sEPSC completely"}]}, {"molecule": "CNC1CCC(N(Cc2cccc(-c3ccncc3)c2)C(=O)c2sc3ccccc3c2Cl)CC1", "note": "(stereo not drawn) [SAG]", "values": [{"measurement": "Gli1 expression", "setting": "differentiating ES cells; [5]", "value": "strong induction of Gli1"}, {"measurement": "Gli3 expression", "setting": "differentiating ES cells; [5]", "value": "strong Gli3 expression reduction"}, {"measurement": "FGF15/19 expression", "setting": "differentiating ES cells; early SHH activation", "value": "induced the expression of FGF15/19"}, {"measurement": "MGE specification", "setting": "H9 cells [3]; 10 nM SAG, H9 cells, 25 days of differentiation", "value": "modest increase in MGE specification"}, {"measurement": "Nkx2.1 level / MGE derivation", "setting": "H9 cells [3]; SAG treatment in the 3rd week of differentiation", "value": "increased Nkx2.1 level mildly but significantly; also recorded: further enhanced MGE derivation"}, {"measurement": "expression of isl1", "setting": "H9 cells [1]; 10 nM vs 100 nM SAG", "value": "no significant difference"}, {"measurement": "induction of the MGE phenotype", "setting": "H9 cells [1]; 100 nM SAG, H9 cells, 25 days of differentiation", "value": "significantly higher induction of the MGE phenotype"}, {"measurement": "MGE specification", "setting": "H9 cells [1]", "value": 0.79, "unit": "%"}]}, {"molecule": "NC1=N[C@H](O)[C@H]2[C@H]3O[C@]4(O)O[C@@H]([C@@H](O)[C@@]2(N1)[C@@H]4O)[C@]3(O)CO", "note": "[tetrodotoxin]", "values": [{"measurement": "block of transient (rapidly desensitizing) inward currents", "setting": "[4]", "value": "completely blocked; also recorded: selectively blocked transient component"}]}, {"molecule": "FGF19: exogenously applied FGF19, caudalizing signal", "values": [{"measurement": "FGF8 expression", "setting": "differentiating ES cells; exogenous application of FGF19", "value": "no effect on FGF8 expression; also recorded: does not affect FGF8 expression"}, {"measurement": "CGE identity", "setting": "H9 cells [3]; FGF19 applied exogenously instead of FGF8, 3 weeks of differentiation", "value": "most of the cells taking up CGE identity; also recorded: induces CGE phenotype"}, {"measurement": "Nkx2.2+/total cells", "setting": "H9 cells [1]", "value": "4.19+0.77%"}]}, {"molecule": "FGF8: fibroblast growth factor 8 protein (SEQ ID NO: 1), activator of FGF8 signaling (protein, listed as Homo sapiens) MAEDGDPFAKLIVETDTFGSRVRVRGAETGLYICMNKKGKLIAKSNGKGKDCVFTEIVLENNYTALQNAKYEGWYMAFTRKGRPRKGSKTRQHQREVHFMKRLPRGHHTTEQSLRFEFLNYPPFTRSLRGSQRTWAPEPR", "values": [{"measurement": "FGF19 expression", "setting": "differentiating ES cells; exogenous application of FGF8", "value": "increase FGF19 expression mildly but significantly; also recorded: increases FGF19 expression"}, {"measurement": "MGE cells by FACS", "setting": "H9 cells [1]; early SHH activation with exogenous FGF8, multiple hPSCs", "value": "> 80", "unit": "%"}, {"measurement": "Nkx2.2+/total cells", "setting": "H9 cells [1]", "value": "0.61+0.38%"}, {"measurement": "MGE differentiation vs CGE differentiation", "setting": "H9 cells [1]; treatment in the 2nd and/or 3rd week of differentiation", "value": "significantly increased MGE differentiation at the expense of CGE differentiation; also recorded: further induced MGE phenotype at the expense of the CGE phenotype; also recorded: induces MGE phenotype"}]}]}
